Source: patent publication US7259140B2, “Heparin-binding peptides and uses thereof” (Thomas Jefferson University, priority 2003, dated 2007)
Ends that are not written are not given here.

Tests used:
[1] = Affinity coelectrophoresis (ACE) of peptide binding to radiolabeled low Mr heparin; design: species or system pig; settings: pH 7.0, mean and standard deviation of four assays, read-out: Kd (nM), affinity for low molecular weight heparin
Outline: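 Trace ¹²⁵I-tyramine end-labelled low-Mr (≦6,000) pig mucosal heparin electrophoresed through 1% agarose lanes containing serially diluted peptides in 50 mM MOPSO/125 mM sodium acetate, pH 7.0, with CHAPS. Heparin mobility read by phosphorimager; retardation coefficients fitted to R=R∞/{1+(Kd/[peptide])^n} to give apparent Kd.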

[2] = system: anti-Factor Xa Activity of the Low Molecular Weight Heparin Lovenox ®; assay: Anti-Factor Xa assay (Stachrom Heparin kit): neutralization of Lovenox in citrate or plasma in vitro; format: biochemical, human; settings: for Lovenox ® Neutralized: Lovenox 0.7 U/ml; for anti-LMWH effect in citrate compared with plasma: Table 2A; for anti-Factor Xa activity of LMWH neutralized: 12 μg/ml, plasma; for Lovenox/LMWH neutralization compared with protamine: low concentrations, in the presence of plasma
Outline: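 Chromogenic anti-Factor Xa kit run with UFH, enoxaparin (Lovenox) or danaparoid (Orgaran) in 0.32% citrate or citrated plasma from three volunteers. Heparin/ATIII complex formed, peptide added, then Factor Xa and dye substrate; absorbance at 405 nm, inversely proportional to remaining anti-Factor Xa activity.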

[3] = system: Lovenox ® Activity in Blood from Patients Treated with Lovenox ®; assay: Neutralizing Lovenox activity in blood from patients treated with Lovenox (anti-Factor Xa assay); format: biochemical, human; settings: for Lovenox ® Neutralized: Peptide 12 μg/ml
Outline: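 Blood came from consenting volunteers already on Lovenox® therapy. Neutralizing peptides were tested as a dose response from 1–60 μg/ml. Each point is mean ± SD of triplicate analyses on one patient's blood sample.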

[4] = blood of Lovenox-treated Patient Number 1
[5] = blood of Lovenox-treated Patient Number 2
[6] = blood of Lovenox-treated Patient Number 3
[7] = blood of Lovenox-treated Patient Number 4
[8] = blood of Lovenox-treated Patient Number 5
[9] = blood of Lovenox-treated Patient Number 8
[10] = blood of Lovenox-treated Patient Number 9
[11] = blood of Lovenox-treated Patient Number 10
[12] = blood of Lovenox-treated Patient Number 11

Substance | Kd [1] | Lovenox ® Neutralized ([2]; 1 μg/ml Peptide, A Plasma) | Lovenox ® Neutralized ([2]; 1 μg/ml Peptide, B Plasma) | Lovenox ® Neutralized ([2]; 1 μg/ml Peptide, C Plasma) | Lovenox ® Neutralized ([2]; 1 μg/ml Peptide, Citrate) | Lovenox ® Neutralized ([2]; 6 μg/ml Peptide, A Plasma) | Lovenox ® Neutralized ([2]; 6 μg/ml Peptide, B Plasma) | Lovenox ® Neutralized ([2]; 6 μg/ml Peptide, C Plasma) | Lovenox ® Neutralized ([2]; 6 μg/ml Peptide, Citrate) | Lovenox ® Neutralized ([2]; 12 μg/ml Peptide, A Plasma) | Lovenox ® Neutralized ([2]; 12 μg/ml Peptide, B Plasma) | Lovenox ® Neutralized ([2]; 12 μg/ml Peptide, C Plasma) | Lovenox ® Neutralized ([2]; 12 μg/ml Peptide, Citrate) | Lovenox ® Neutralized ([2]; 60 μg/ml Peptide, A Plasma) | Lovenox ® Neutralized ([2]; 60 μg/ml Peptide, B Plasma) | Lovenox ® Neutralized ([2]; 60 μg/ml Peptide, C Plasma) | Lovenox ® Neutralized ([2]; 60 μg/ml Peptide, Citrate) | Lovenox ® Neutralized ([2]; 120 μg/ml Peptide, A Plasma) | Lovenox ® Neutralized ([2]; 120 μg/ml Peptide, B Plasma) | Lovenox ® Neutralized ([2]; 120 μg/ml Peptide, C Plasma) | other results
ARKKAAKAARKKAAKAARKKAAKAVLVLVL [(ARKKAAKA)3VLVLVL] | 44 ± 17 nM | 0.070 ± .036 U/ml | 0.030 ± 0.020 U/ml | 0.005 + 0.007 U/ml | 0.064 ± .046 U/ml | 0.250 ± .012 U/ml | 0.234 ± 0.032 U/ml | 0.153 ± 0.031 U/ml | 0.298 ± .049 U/ml | 0.241 ± .076 U/ml | 0.247 ± 0.031 U/ml | 0.276 ± 0.033 U/ml | 0.457 ± .016 U/ml | 0.453 ± .029 U/ml | 0.474 ± 0.011 U/ml | 0.491 ± 0.029 U/ml | 0.479 ± .006 U/ml | 0.457 ± .010 U/ml | 0.496 ± 0.028 U/ml | 0.471 ± 0.013 U/ml | Lovenox ® Neutralized ([2]; 120 μg/ml Peptide, Citrate): 0.516 ± .065 U/ml; anti-LMWH effect in citrate compared with plasma [2]: greater anti-LMWH effect in citrate than in plasma; Lovenox ® Neutralized [3, 4]: 0.016 U/ml; Lovenox ® Neutralized [3, 5]: 0.030 U/ml; Lovenox ® Neutralized [3, 6]: 0.043 U/ml; Lovenox ® Neutralized [3, 7]: 0.122 U/ml; Lovenox ® Neutralized [3, 8]: 0.109 U/ml; Lovenox ® Neutralized [3, 9]: 0.104 U/ml; Lovenox ® Neutralized [3, 10]: 0.187 U/ml; Lovenox ® Neutralized [3, 11]: 0.133 U/ml; Lovenox ® Neutralized [3, 12]: 0.142 U/ml
ARKKAAKAARKKAAKAARKKAAKAVLVLVLVL [(ARKKAAKA)3VLVLVLVL] | 57 ± 23 nM | 0.055 ± 0.041 U/ml | 0.035 ± 0.009 U/ml | 0.058 ± 0.054 U/ml | 0.082 ± 0.027 U/ml | 0.292 ± 0.047 U/ml | 0.189 ± 0.066 U/ml | 0.202 ± 0.042 U/ml | 0.288 ± 0.045 U/ml | 0.441 ± 0.058 U/ml | 0.376 ± 0.001 U/ml | 0.371 ± 0.031 U/ml | 0.412 ± 0.035 U/ml | 0.588 ± 0.027 U/ml | 0.561 ± 0.035 U/ml | 0.532 ± 0.023 U/ml | 0.441 ± 0.010 U/ml | 0.575 ± 0.057 U/ml | 0.480 ± 0.035 U/ml | 0.485 ± 0.022 U/ml | rank as neutralizing agent of Lovenox [2]: most effective neutralizing agents; anti-Factor Xa activity of LMWH neutralized [2]: about 0.4 U/ml; Lovenox ® Neutralized ([2]; 120 μg/ml Peptide, Citrate): 0.463 ± 0.029 U/ml; anti-LMWH effect in citrate compared with plasma [2]: neutralize the same amount of Lovenox® in citrate and plasma; Lovenox/LMWH neutralization compared with protamine [2]: more effective than protamine; effectiveness in neutralizing Lovenox in blood of patients [3]: most consistently effective; Lovenox ® Neutralized [3, 4]: 0.213 U/ml; Lovenox ® Neutralized [3, 5]: 0.252 U/ml; Lovenox ® Neutralized [3, 6]: 0.302 U/ml; Lovenox ® Neutralized [3, 7]: 0.439 U/ml; Lovenox ® Neutralized [3, 8]: 0.265 U/ml; Lovenox ® Neutralized [3, 9]: 0.268 U/ml; Lovenox ® Neutralized [3, 10]: 0.478 U/ml; Lovenox ® Neutralized [3, 11]: 0.436 U/ml; Lovenox ® Neutralized [3, 12]: 0.398 U/ml
VLVL(ARKKAAKA)3ARKKCAKA (VLVLARKKAAKAARKKAAKAARKKAAKAARKKCAKA; Fragment) | 48 ± 11 nM | 0.080 ± .036 U/ml | 0.071 ± 0.056 U/ml | 0.077 ± 0.055 U/ml | 0.091 ± .053 U/ml | 0.218 ± .026 U/ml | 0.233 ± 0.025 U/ml | 0.217 ± 0.154 U/ml | 0.432 ± .086 U/ml | 0.365 ± .076 U/ml | 0.290 ± 0.047 U/ml | 0.380 ± 0.045 U/ml | 0.484 ± .012 U/ml | 0.483 ± .070 U/ml | 0.456 ± 0.029 U/ml | 0.461 ± 0.05 U/ml | 0.550 ± .027 U/ml | 0.674 ± .105 U/ml | 0.515 ± 0.005 U/ml | 0.483 ± 0.044 U/ml | rank as neutralizing agent of Lovenox [2]: most effective neutralizing agents; anti-Factor Xa activity of LMWH neutralized [2]: about 0.4 U/ml; Lovenox ® Neutralized ([2]; 120 μg/ml Peptide, Citrate): 0.533 ± .017 U/ml; anti-LMWH effect in citrate compared with plasma [2]: greater anti-LMWH effect in citrate than in plasma; Lovenox/LMWH neutralization compared with protamine [2]: more effective than protamine; Lovenox ® Neutralized [3, 4]: 0.043 U/ml; Lovenox ® Neutralized [3, 5]: 0.335 U/ml; Lovenox ® Neutralized [3, 6]: 0.008 U/ml; Lovenox ® Neutralized [3, 7]: 0.172 U/ml; Lovenox ® Neutralized [3, 8]: 0.110 U/ml; Lovenox ® Neutralized [3, 9]: 0.329 U/ml; Lovenox ® Neutralized [3, 10]: 0.200 U/ml; Lovenox ® Neutralized [3, 11]: 0.184 U/ml; Lovenox ® Neutralized [3, 12]: 0.240 U/ml
